Target: T1, HCV genotype 1b (BK) NS3 modified with a R155K mutation (Hepatitis C virus genotype 1b, UniProt P26663, R1181K)
T1 construct: HCV genotype 1b (BK) NS3 modified with a R155K mutation
Assay: HCV NS3 protease time-resolved fluorescence (TRF) assay, NS3 protease 1b R155K Ki activity
Assay type: biochemical
Conditions: HCV genotype 1b (BK) NS3 with R155K mutation; TRF peptide substrate 100 nM; Ki derived from IC50
Procedure: The HCV NS3 protease inhibitory activity of the present compounds may be tested using assays known in the art. One such assay is HCV NS3 protease time-resolved fluorescence (TRF) assay as described below and in International Patent Application Publication WO 2006/102087. Other examples of such assays are described in e.g., International Patent Application Publication WO 2005/046712.
A NS3 protease assay can be performed, for example, in a final volume of 100 μl assay buffer containing 50 mM HEPES, pH 7.5, 150 mM NaCl, 15% glycerol, 0.15% TRITON X-100, 10 mM DTT, and 0.1% PEG 8000. NS3 and NS4A protease is pre-incubated with various concentrations of inhibitors in DMSO for 30 minutes. The reaction is initiated by adding the TRF peptide substrate (final concentration 100 nM). NS3 mediated hydrolysis of the substrate is quenched after 1 hour at room temperature with 100 μl of 500 mM MES, pH 5.5. Product fluorescence is detected using either a VICTOR V2 or FUSION fluorophotometer (Perkin Elmer Life and Analytical Sciences) with excitation at 340 nm and emission at 615 nm with a 400 μs delay. Testing concentrations of different enzyme forms are selected to result in a signal to background ratio (S/B) of 10-30. IC50 values are derived using a standard four-parameter fit to the data. Ki values are derived from IC50 values using the following formula, IC50=Ki(1+[S]/KM), Eqn (1), where [S] is the concentration of substrate peptide in the reaction and KM is the Michaelis constant. See P. Gallinari et al., 38 BIOCHEM. 5620-32 (1999); P. Gallinari et al., 72 J. VIROL. 6758-69 (1998); M. Taliani et al., 240 ANAL. BIOCHEM. 60-67 (1996).
The HCV NS3 protease inhibitory activity was measured using the protease time-resolved fluorescence (TRF) assay as described below and in International Patent Application Publication WO 2006/102087. The assay was performed with HCV genotype 1b (BK) NS3 modified with a R155K mutation.
The assay was performed in a final volume of 100 μl in assay buffer containing 50 mM HEPES, pH 7.5, 150 mM NaCl, 15% glycerol, 0.15% TRITON X-100, 10 mM DTT, and 0.1% PEG 8000. NS3 and NS4A protease is pre-incubated with various concentrations of inhibitors in DMSO for 30 minutes. The reaction is initiated by adding the TRF peptide substrate (final concentration 100 nM). NS3 mediated hydrolysis of the substrate is quenched after 1 hour at room temperature with 100 μl of 500 mM MES, pH 5.5. Product fluorescence is detected using either a VICTOR V2 or FUSION fluorophotometer (Perkin Elmer Life and Analytical Sciences) with excitation at 340 nm and emission at 615 nm with a 400 μs delay. Testing concentrations of the enzyme containing the R155K mutation were selected to result in a signal to background ratio (S/B) of 10-30. IC50 values are derived using a standard four-parameter fit to the data. Ki values are derived from IC50 values using the following formula, IC50=Ki(1+[S]/KM), Eqn (1), where [S] is the concentration of substrate peptide in the reaction and KM is the Michaelis constant. See P. Gallinari et al., 38 BIOCHEM. 5620-32 (1999); P. Gallinari et al., 72 J. VIROL. 6758-69 (1998); M. Taliani et al., 240 ANAL. BIOCHEM. 60-67 (1996).

Structure (SMILES)	Ki [nM]
C=C[C@@H]1C[C@]1(NC(=O)[C@@H]1C[C@@H]2CN1C(=O)[C@H](C1CCCC1)NC(=O)O[C@@H]1CCC[C@H]1C/C=C/Cn1c(cc3ccccc3c1=O)O2)C(=O)NS(=O)(=O)C1CC1	0.1 to 0.5
C=C[C@@H]1C[C@]1(NC(=O)[C@@H]1C[C@@H]2CN1C(=O)[C@H](C1CCCC1)NC(=O)O[C@@H]1CCC[C@H]1CC1CC1CCn1c(cc3cc(Cl)ccc3c1=O)O2)C(=O)NS(=O)(=O)C1CC1 (some centres unmarked)	0.1 to 0.5
C=C[C@@H]1C[C@]1(NC(=O)[C@@H]1C[C@@H]2CN1C(=O)[C@H](C1CCCC1)NC(=O)O[C@@H]1CCC[C@H]1CCCC1CC1Cn1c(cc3ccccc3c1=O)O2)C(=O)NS(=O)(=O)C1CC1 (some centres unmarked)	0.5 to 1
CC[C@@H]1C[C@]1(NC(=O)[C@@H]1C[C@@H]2CN1C(=O)[C@H](C1CCCC1)NC(=O)O[C@@H]1CCC[C@H]1CC/C=C/Cn1c(nc3cc(C)ccc3c1=O)O2)C(=O)NS(=O)(=O)C1CC1 [(1R,14E,18S,22R,26S,29S)-26-cyclopentyl-N-((1R,2R)-1-{[(cyclopropylsulfonyl)amino]carbonyl}-2-ethylcyclopropyl)-7-methyl-11,24,27-trioxo-2,23-dioxa-4,12,25,28-tetraazapentacyclo[26.2.1.0^3,12.0^5,10.0^18,22]hentriaconta-3,5,7,9,14-pentaene-29-carboxamide]	0.1 to 0.5
C=C[C@@H]1C[C@]1(NC(=O)[C@@H]1C[C@@H]2CN1C(=O)[C@H](C1CCCC1)NC(=O)O[C@@H]1CCC[C@H]1CCCCCn1c(ccc(Br)c1=O)O2)C(=O)NS(=O)(=O)C1CC1 [(1R,14R,18R,22S,25S)-6-bromo-22-cyclopentyl-N-((1R,2S)-1-{[(cyclopropylsulfonyl)amino]carbonyl}-2-vinylcyclopropyl)-7,20,23-trioxo-2,19-dioxa-8,21,24-triazatetracyclo[22.2.1.0^3,8.0^14,18]heptacosa-3,5-diene-25-carboxamide]	0.1 to 0.5
C=C[C@@H]1C[C@]1(NC(=O)[C@@H]1C[C@@H]2CN1C(=O)[C@H](C1CCCC1)NC(=O)O[C@@H]1CCC[C@H]1CCCCCn1c(cccc1=O)O2)C(=O)NS(=O)(=O)C1CC1 [(1R,14R,18R,22S,25S)-22-cyclopentyl-N-((1R,2S)-1-{[(cyclopropylsulfonyl)amino]carbonyl}-2-vinylcyclopropyl)-7,20,23-trioxo-2,19-dioxa-8,21,24-triazatetracyclo[22.2.1.0^3,8.0^14,18]heptacosa-3,5-diene-25-carboxamide]	0.1 to 0.5
C=C[C@@H]1C[C@]1(NC(=O)[C@@H]1C[C@@H]2CN1C(=O)[C@H](C1CCCC1)NC(=O)O[C@@H]1CCC[C@H]1CCCCCn1c(ccc(-c3ccccc3)c1=O)O2)C(=O)NS(=O)(=O)C1CC1 [(1R,14R,18R,22S,25S)-22-cyclopentyl-N-((1R,2S)-1-{[(cyclopropylsulfonyl)amino]carbonyl}-2-vinylcyclopropyl)-7,20,23-trioxo-6-phenyl-2,19-dioxa-8,21,24-triazatetracyclo[22.2.1.0^3,8.0^14,18]heptacosa-3,5-diene-25-carboxamide]	0.1 to 0.5
C=C[C@@H]1C[C@]1(NC(=O)[C@@H]1C[C@@H]2CN1C(=O)[C@H](C1CCCC1)NC(=O)O[C@@H]1CCC[C@H]1CCCCCn1c(nc3cc(Cl)ccc3c1=O)O2)C(=O)NS(=O)(=O)C1(C)CC1 [(1R,18R,22R,26S,29S)-7-chloro-26-cyclopentyl-N-[(1R,2S)-1-({[(1-methylcyclopropyl)sulfonyl]amino}carbonyl)-2-vinylcyclopropyl]-11,24,27-trioxo-2,23-dioxa-4,12,25,28-tetraazapentacyclo[26.2.1.0^3,12.0^5,10.0^18,22]hentriaconta-3,5,7,9-tetraene-29-carboxamide]	< 0.1
C=C[C@@H]1C[C@]1(NC(=O)[C@@H]1C[C@@H]2CN1C(=O)[C@H](C1CCCC1)NC(=O)O[C@@H]1CCC[C@H]1CCCCCn1c(nc3cc(OC)ccc3c1=O)O2)C(=O)NS(=O)(=O)C1(C)CC1 [(1R,18R,22R,26S,29S)-26-cyclopentyl-7-methoxy-N-[(1R,2S)-1-({[(1-methylcyclopropyl)sulfonyl]amino}carbonyl)-2-vinylcyclopropyl]-11,24,27-trioxo-2,23-dioxa-4,12,25,28-tetraazapentacyclo[26.2.1.0^3,12.0^5,10.0^18,22]hentriaconta-3,5,7,9-tetraene-29-carboxamide]	< 0.1
CC[C@@H]1C[C@]1(NC(=O)[C@@H]1C[C@@H]2CN1C(=O)[C@H](C1CCCC1)NC(=O)O[C@@H]1C[C@H]1CCCCCn1c(cc3ccccc3c1=O)O2)C(=O)NS(=O)(=O)C1CC1 [(1aR,5S,8S,10R,23aR)-5-cyclopentyl-N-((1R,2R)-1-{[(cyclopropylsulfonyl)amino]carbonyl}-2-ethylcyclopropyl)-3,6,17-trioxo-1,1a,3,4,5,6,9,10,19,20,21,22,23,23a-tetradecahydro-8H,17H-7,10-methanocyclopropa[18,19][1,10,3,6,12]dioxatriazacyclononadecino[12,11-b]isoquinoline-8-carboxamide]	0.1 to 0.5
C=C[C@@H]1C[C@]1(NC(=O)[C@@H]1C[C@@H]2CN1C(=O)[C@H](C1CCCC1)NC(=O)O[C@@H]1C[C@H]1CCCCCn1c(cc3ccccc3c1=O)O2)C(=O)NS(=O)(=O)C1CC1 [(1aR,5S,8S,10R,23aR)-5-cyclopentyl-N-((1R,2S)-1-{[(cyclopropylsulfonyl)amino]carbonyl}-2-vinylcyclopropyl)-3,6,17-trioxo-1,1a,3,4,5,6,9,10,19,20,21,22,23,23a-tetradecahydro-8H,17H-7,10-methanocyclopropa[18,19][1,10,3,6,12]dioxatriazacyclononadecino[12,11-b]isoquinoline-8-carboxamide]	< 0.1
CC[C@@H]1C[C@]1(NC(=O)[C@@H]1C[C@@H]2CN1C(=O)[C@H](C1CCCC1)NC(=O)O[C@H]1C[C@@H]1CCCCCn1c(cc3ccccc3c1=O)O2)C(=O)NS(=O)(=O)C1CC1 [(1aS,5S,8S,10R,23aS)-5-cyclopentyl-N-((1R,2R)-1-{[(cyclopropylsulfonyl)amino]carbonyl}-2-ethylcyclopropyl)-3,6,17-trioxo-1,1a,3,4,5,6,9,10,19,20,21,22,23,23a-tetradecahydro-8H,17H-7,10-methanocyclopropa[18,19][1,10,3,6,12]dioxatriazacyclononadecino[12,11-b]isoquinoline-8-carboxamide]	0.1 to 0.5
C=C[C@@H]1C[C@]1(NC(=O)[C@@H]1C[C@@H]2CN1C(=O)[C@H](C1CCCC1)NC(=O)O[C@H]1C[C@@H]1CCCCCn1c(cc3ccccc3c1=O)O2)C(=O)NS(=O)(=O)C1CC1 [(1aS,5S,8S,10R,23aS)-5-cyclopentyl-N-((1R,2S)-1-{[(cyclopropylsulfonyl)amino]carbonyl}-2-vinylcyclopropyl)-3,6,17-trioxo-1,1a,3,4,5,6,9,10,19,20,21,22,23,23a-tetradecahydro-8H,17H-7,10-methanocyclopropa[18,19][1,10,3,6,12]dioxatriazacyclononadecino[12,11-b]isoquinoline-8-carboxamide]	0.1 to 0.5
CC[C@@H]1C[C@]1(NC(=O)[C@@H]1C[C@@H]2CN1C(=O)[C@H](C1CCCC1)NC(=O)O[C@@H]1CCC[C@H]1CC/C=C/Cn1c(nc3ccccc3c1=O)O2)C(=O)NS(=O)(=O)C1CC1 [(3aR,7S,10S,12R,22E,25aS)-7-cyclopentyl-N-((1R,2R)-1-{[(cyclopropylsulfonyl)amino]carbonyl}-2-ethylcyclopropyl)-5,8,19-trioxo-1,2,3,3a,5,6,7,8,11,12,21,24,25,25a-tetradecahydro-10H,19H-9,12-methanocyclopenta[18,19][1,10,3,6,12]dioxatriazacyclononadecino[11,12-b]quinazoline-10-carboxamide]	0.1 to 0.5

Source: patent US8461107B2 (Merck Sharp & Dohme Corp., priority 2008, dated 2013)
